Source: patent publication US10590143B2, “Herbicidally active (alkynyl-phenyl)-substituted cyclic dione compounds and derivatives thereof” (Syngenta Limited, priority 2013, dated 2020)
Like-named read-outs stand apart in the source and are kept apart here.

Key:
Type in all cases: in vivo
Eleusine indica (ELEIN) = experiment: Biological Example 3 glasshouse assay for herbicidal activity, using various adjuvant systems; details: post-emergence, 8 g/ha, 14 or 15 DAA; adjuvant 0.5% v/v + 1.0% AMS + 12.5% IPA: TEHP (A3-A7), Adigor (A8, P1, P2, P4), Hexamoll DINCH (A1)
Procedure: (§1) • Materials and Methods • Herbicide Application: Post-emergence foliar spray application, 200 L/ha, usually one or two replicates for the weeds (depending on application rate), and two replicates for soybean. • Climate: Standard warm conditions (tropical), in glasshouse. Specifically, the glasshouse bay conditions are 24° C./18° C. day/night; 16/8 hours light/dark; 65% humidity. • Plants: The herbicidal application takes place at the following growth stages for plants which include inter alia one or more of the following plants (usually the herbicidal application takes place on at least the following plants: DIGSA, ELEIN, SETFA, ZEAMX, GLXMA Nikko, and GLXMA TMG133, and often also either BRADC or BRAPP): • Brachiaria decumbens (BRADC)—growth stage (GS) 12 or 13 (or GS 12)—or, if BRADC is not used, then usually Brachiaria platyphylla (BRAPP)—growth stage 12 or 13 • Digitaria sanguinalis (DIGSA)—growth stage 12 or 13 • Eleusine indica (ELEIN)—growth stage 12 or 13 • Setaria faberi (SETFA)—growth stage 12 or 13 • Echinochloa crus-galli (ECHCG)—growth stage 12 or 13 • Sorghum halepense (annual) (SORHA)—growth stage 12 or 13 • Panicum dichotomiflorum (PANDI)—growth stage 12 or 13 • Zea mays (ZEAMX, maize/corn, e.g. can occur as volunteer corn) cultivar “Garland”—growth stage 12 or 13 • Glycine max (GLXMA, soybean) cultivar “Nikko”—growth stage: 1st trifoliate • Glycine max (GLXMA, soybean) cultivar “TMG133”—which is Roundup Ready™ glyphosate-tolerant soybean cultivar TMG133 (typically available from Monsanto in Brazil)—growth stage: 1st trifoliate. • Herbicidal Compositions Tested:
(§2) Each test compound is applied with one of the following adjuvant systems (all percentages are final concentrations in the aqueous spray mixture): • Adjuvant system 1: 0.5% v/v Adigor™*, 1.0% v/v AMS (ammonium sulphate) and 12.5% v/v IPA (isopropyl alcohol). • Adjuvant system 2: 0.5% v/v Hexamoll™ DINCH**, 1.0% v/v AMS (ammonium sulphate) and 12.5% v/v IPA (isopropyl alcohol). • Adjuvant system 3: 0.5% v/v tris-(2-ethylhexyl)phosphate (“TEHP”), 1.0% v/v AMS (ammonium sulphate) and 12.5% v/v IPA (isopropyl alcohol). ***Adigor™ (currently available in many countries from Syngenta) is an emulsifiable concentrate which consists of: • (i) ethoxylated alcohols, which typically includes ethoxylated higher alcohols (e.g. ethoxylates of alcohols wherein the alcohols are within the range of C12-C22); and • (ii) a mixture of heavy aromatic hydrocarbons, which typically includes (e.g. includes 50% or more by weight of the heavy aromatic hydrocarbons of) a mixture of naphthalenes each of which is substituted by one or more alkyls wherein the alkyl(s) in total have 1-4 carbon atoms per naphthalene molecule (e.g. Solvesso 200 ND™); and • (iii) about 47% w/w and/or about 45% w/v (with respect to the emulsifiable concentrate) of methylated rapeseed oil (rapeseed oil methyl ester) (e.g. Agnique ME 18 RD-F™), as an adjuvant. **Hexamoll™ DINCH™ is 1,2-cyclohexane dicarboxylic acid di-isononyl ester
(§3) Seeds of the weed (including volunteer) plants, typically including inter alia Digitaria sanguinalis (DIGSA), Eleusine indica (ELEIN), Setaria faberi (SETFA), Zea mays (ZEAMX, corn), and sometimes also [either Brachiaria decumbens (BRADC) or Brachiaria platyphylla (BRAPP)], are sown in seed trays (troughs) containing clay loam soil (pH 7.0, 2.2% organic matter, “Trough Mix A”); and soybean seed is sown in pots containing the same soil with 3 soybean seedlings per pot. The plants are sprayed with the test herbicide when they reach the growth stages mentioned above.
(§4) The test herbicidal solutions are prepared by mixing the appropriate aliquots of the test substance(s) and one of the adjuvant systems indicated above*** in deionised water to give the desired treatment concentration.
(§5) The herbicidal application is made as a foliar spray, using a tracksprayer. Following the herbicidal application, the plants are watered twice per day for the duration of the test. […]

[1] = test system: Alopecurus myosuroides (ALOMY); experiment: Biological Example 1 glasshouse assay for herbicidal activity; details: 312 h, 13 days after application, read-out: percentage phytotoxicity ALOMY
Procedure: (§6) Seeds of a variety of test plant species were sown in standard soil** in pots. After cultivation for one day (pre-emergence) or after 8 days cultivation (post-emergence) under controlled conditions in a glasshouse (at 24/16° C., day/night; 14 hours light; 65% humidity), the plants were sprayed with an aqueous spray solution derived from the formulation of the technical active ingredient (the test herbicide) in acetone/water (50:50) solution containing 0.5% Tween 20 (polyoxyethylene sorbitan monolaurate, CAS Reg. No. 9005-64-5). The test plants were then grown on under controlled conditions in a glasshouse (at 24/16° C., day/night; 14 hours light; 65% humidity) and watered twice daily. 13 Days after application of the test herbicide, for pre- and post-emergence, the test was evaluated visually for percentage phytotoxicity to each plant (where 100%=total damage to plant; 0%=no damage to plant). Generally, each test herbicide is only tested on 1 plant per plant species for each application rate tested and for each application timing. **The “standard soil” in Biological Example 1 is usually a “sand” or “sandy loam” type of soil.
(§7) Dicotyledonous weeds: ABUTH=Abutilon theophrasti; AMARE=Amaranthus retroflexus. Grassy monocotyledonous weeds: SETFA=Setaria faberi; ALOMY=Alopecurus myosuroides; ECHCG=Echinochloa crus-galli; ZEAMX=Zea mays (corn, maize, e.g. volunteer corn).

[2] = test system: Echinochloa crus-galli (ECHCG); experiment: as above; details: Echinochloa crus-galli, 312 h, 13 days after application, read-out: percentage phytotoxicity ECHCG
Procedure: as §6, §7

[3] = test system: Abutilon theophrasti (ABUTH); experiment: as above; details: 312 h, 13 days after application, read-out: percentage phytotoxicity ABUTH
Procedure: as §6, §7

Setaria faberi (SETFA) [4] = experiment: as above; details: 312 h, 13 days after application, read-out: percentage phytotoxicity SETFA
Procedure: as §6, §7

[5] = test system: Amaranthus retroflexus (AMARE); experiment: as above; details: Amaranthus retroflexus, 312 h, 13 days after application, read-out: percentage phytotoxicity AMARE
Procedure: as §6, §7

[6] = test system: Zea mays (ZEAMX, corn, maize, e.g. volunteer corn); experiment: as above; details: Zea mays, 312 h, 13 days after application, read-out: percentage phytotoxicity ZEAMX
Procedure: as §6, §7

Setaria faberi (SETFA) [7] = experiment: Biological Example 3 glasshouse assay for herbicidal activity, using various adjuvant systems; details: post-emergence, 8 g/ha, 14 or 15 DAA; adjuvant 0.5% v/v + 1.0% AMS + 12.5% IPA: TEHP (A3-A7), Adigor (A8, P1, P2, P4), Hexamoll DINCH (A1)
Procedure: as §1, §2, §3, §4, §5

[8] = test system: Digitaria sanguinalis (DIGSA); experiment: as above; details: post-emergence, 8 g/ha, 14 or 15 DAA; adjuvant 0.5% v/v + 1.0% AMS + 12.5% IPA: TEHP (A3-A7), Adigor (A8, P1, P2, P4), Hexamoll DINCH (A1)
Procedure: as §1, §2, §3, §4, §5

Zea mays (ZEAMX, corn) = experiment: as above; details: post-emergence, 8 g/ha, 14 or 15 DAA; adjuvant 0.5% v/v + 1.0% AMS + 12.5% IPA: TEHP (A3-A7), Adigor (A8, P1, P2, P4), Hexamoll DINCH (A1)
Procedure: as §1, §2, §3, §4, §5

[9] = post-emergence, post-emergence, 30 g/ha

| Structure (SMILES) | percentage control of (percentage phytotoxicity on) Eleusine indica (ELEIN) (Eleusine indica (ELEIN)) [%] | pest or weed control at 250 g/ha ([1]; post-emergence) [%] | pest or weed control at 250 g/ha ([1]; pre-emergence) [%] | pest or weed control at 250 g/ha ([2]; post-emergence, post-emergence) [%] | pest or weed control at 250 g/ha ([2]; pre-emergence, pre-emergence) [%] | pest or weed control at 250 g/ha ([3]; post-emergence, post-emergence) [%] | pest or weed control at 250 g/ha ([3]; pre-emergence, pre-emergence) [%] | pest or weed control at 250 g/ha (Setaria faberi (SETFA) [4]; post-emergence, post-emergence) [%] | pest or weed control at 250 g/ha (Setaria faberi (SETFA) [4]; pre-emergence, pre-emergence) [%] | pest or weed control at 250 g/ha ([5]; post-emergence, post-emergence) [%] | pest or weed control at 250 g/ha ([5]; pre-emergence, pre-emergence) [%] | pest or weed control at 250 g/ha ([6]; post-emergence, post-emergence) [%] | pest or weed control at 250 g/ha ([6]; pre-emergence, pre-emergence) [%] | percentage control of (percentage phytotoxicity on) Setaria faberi (SETFA) (Setaria faberi (SETFA) [7]) [%] | percentage control of (percentage phytotoxicity on) Digitaria sanguinalis (DIGSA) [8] [%] | further results |
| --- | --- | --- | --- | --- | --- | --- | --- | --- | --- | --- | --- | --- | --- | --- | --- | --- |
| CC#Cc1cc(Br)c(C2C(=O)C3CCC(C3)C2=O)c(OC)c1 (centres unmarked) [Compound A3] | 55 | 100 | 100 | 100 | 100 | 10 | 10 | 100 | 100 | 20 | 20 | 100 | 100 | – | – | pest or weed control at 30 g/ha ([1]; post-emergence, 30 g/ha): 70%; pest or weed control at 30 g/ha [2, 9]: 90%; pest or weed control at 30 g/ha [3, 9]: 0%; pest or weed control at 30 g/ha (Setaria faberi (SETFA) [4]; [9]): 80%; pest or weed control at 30 g/ha [5, 9]: 0%; pest or weed control at 30 g/ha [6, 9]: 90% |
| CC#Cc1cc(F)c(C2C(=O)C3CCC(C3)C2=O)c(OCCOC)c1 (centres unmarked) [Compound A5] | 0 | 70 | 40 | 100 | 80 | 30 | 20 | 80 | 60 | 30 | 50 | 100 | 90 | 25 | 0 | – |
| CC#Cc1cc(F)c(C2C(=O)C3CCC(C3)C2=O)c(OCC(F)(F)F)c1 (centres unmarked) [Compound A6] | 5 | 80 | 60 | 100 | 80 | 20 | 30 | 80 | 70 | 50 | 60 | 100 | 80 | 25 | 5 | percentage control of (percentage phytotoxicity on) Zea mays (ZEAMX, corn) (Zea mays (ZEAMX, corn)): 0% |
